SMILES strings stand for the structures. “Also recorded” adds a separate entry of the source.

In one experiment the target is protein kinase. In words: HTS ATP-utilizing enzyme assay, off-chip mobility-shift format (Caliper HTS 250). The format is biochemical, human. Particulars: kinase(s) for which the compound exhibits protein kinase inhibitory activity; test compound 10 μM; active = greater than three-sigma from the mean activity of inactive compounds. In short, it runs like this: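 Single-point screen at 10 μM compound in HEPES pH 7.5 buffer with Triton X-100 and BSA, 2.5 h at 20–22 °C. Substrate-to-phosphopeptide ratio measured by off-chip microfluidic mobility shift; EDTA wells as 100% and DMSO wells as 0% control, hits called at three-sigma limits.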
Regarding `COc1ccc(-n2c(SCC(=O)Nc3cccc(C(C)=O)c3)nnc2-c2ccc(O)cc2)cc1`, the Kinase result is on record as “GSK3-β; also recorded: GSK3-α”. The same measure, in the same setting: for `Cn1c(COc2ccc(Br)cc2)nnc1SCC(=O)O` the value was “AURORA-A”. The same measure, in the same setting: as for `Cn1c(SCC(=O)c2ccc(O)c(O)c2)nnc1-c1ccccc1`, the entry is “MSK2 and FYN and HCK”; as for `Cn1c(Cn2nnc3ccccc32)nnc1SCC(=O)Nc1nccs1`, “GSK3-β; also recorded: GSK3-α; also recorded: CDK2-cyclinE”. Take `CCn1c(Cc2ccccc2)nnc1SCC(=O)N1CCCc2ccccc21`: the Kinase result is listed as “FYN”. Take `CCn1c(SCC(=O)Nc2ccccc2C)nnc1C(C)C` [2-(4-ethyl-5-isopropyl-4H-1,2,4-triazol-3-ylthio)-N-o-tolylacetamide]: the Kinase result is on record as “PDGFRR-α”.

Turning to `Cc1ccc(-n2c(SCC(=O)O)nnc2-c2cccnc2)cc1` [2-(5-(pyridin-3-yl)-4-p-tolyl-4H-1,2,4-triazol-3-ylthio)acetic acid], the Kinase result is given as “AURORA-A”. Same read-out and setting: for `CCOC(=O)CSc1nnc(CNc2ccc(C)c(Cl)c2)n1CC1CCCO1` (stereo not drawn) the value was “CHEK2”. As to `COc1ccc(-n2c(C)nnc2S)cc1` [4-(4-methoxyphenyl)-5-methyl-4H-1,2,4-triazole-3-thiol], the Kinase entry was “AURORA-A”. Still for that read-out and setting: for `N#CCSc1nnc(COc2cccc3ccccc23)n1Cc1ccccc1` the value was “CDK1 and CHEK2”. For `CC1CCCCC1NC(=O)CSc1nnc(-c2ccccc2)n1Cc1ccccc1` (stereo not drawn), the Kinase entry is “AKT1”. With `CSCCc1nnc(SCC(=O)O)[nH]1` [2-(5-(2-(methylthio)ethyl)-4H-1,2,4-triazol-3-ylthio)acetic acid], the Kinase result is on record as “GSK3-α; also recorded: GSK3-β”.

As for `Cc1nnc(SC(C)C(=O)Nc2ccccc2)n1Cc1ccccc1` (stereo not drawn) [2-(4-benzyl-5-methyl-4H-1,2,4-triazol-3-ylthio)-N-phenylpropanamide], the Kinase entry was “PKA and DAPK1”. The same measure, in the same setting: as for `COc1ccc(OCc2nnc(SCC(=O)O)n2-c2ccc(C)cc2)cc1`, the entry is “AURORA-A”; as for `O=C(O)CSc1nnc(-c2ccc(S(=O)(=O)N3CCOCC3)cc2)n1-c1ccccc1`, “CHEK2”; as for `COc1ccc(OC)c(C(=O)CSc2nnc(-c3ccccc3N)n2C)c1`, “PDGFRR-α”. The same measure, in the same setting: for `CCn1c(SCC(=O)Nc2cc(C)ccc2OC)nnc1-c1ccc(S(=O)(=O)N2CCCCCC2)cc1` the value was “DAPK1”. Regarding `COC(=O)c1ccccc1NC(=O)CSc1nnc(-c2ccc(O)cc2)n1Cc1ccccc1`, the Kinase entry was “AKT3 and GSK3-β and GSK3-α”. On the same count and under the same terms, for `NC(=O)CSc1nnc(-c2cc3ccccc3cc2O)n1Cc1ccco1` the value was “SRC”. As to `O=C(CSc1nnc[nH]1)c1ccc(O)cc1O` [2-(4H-1,2,4-triazol-3-ylthio)-1-(2,4-dihydroxyphenyl)ethanone], the Kinase entry is given as “GSK3-α”. Consider `Cn1c(Cn2nnc3ccccc32)nnc1SCC(=O)Nc1cccc(O)c1`, for which the Kinase result was “GSK3-α”. Same read-out and setting: for `O=C(CSc1nnc[nH]1)N1c2ccccc2Sc2ccccc21` [2-(4H-1,2,4-triazol-3-ylthio)-1-(10H-phenothiazin-10-yl)ethanone] the value was “LCK”; for `Cc1nnc(S)n1CC1CCCO1` (stereo not drawn) [5-methyl-4-((tetrahydrofuran-2-yl)methyl)-4H-1,2,4-triazole-3-thiol], “MAPKAPK-2”; for `O=C(O)CSc1nnc(COc2ccc(Cl)cc2)[nH]1` [2-(5-((4-chlorophenoxy)methyl)-4H-1,2,4-triazol-3-ylthio)acetic acid], “GSK3-B β; also recorded: GSK3-α”. As to `COc1ccc(OCc2nnc(SCC(=O)Nc3ccc(C)cc3Br)n2-c2ccccc2)cc1`, the Kinase result was “CDK1”.

For the compound `COc1ccccc1-n1c(SCC(=O)O)nnc1-c1ccccc1C` [2-(4-(2-methoxyphenyl)-5-o-tolyl-4H-1,2,4-triazol-3-ylthio)acetic acid], the Kinase result is recorded as “CHEK2”. Regarding `COc1ccc(-c2nnc(SCC#N)[nH]2)cc1` [2-(5-(4-methoxyphenyl)-4H-1,2,4-triazol-3-ylthio)acetonitrile], the Kinase entry is on record as “FLT-3; also recorded: DYRK2; also recorded: AURORA-A”. Regarding `NC(=O)c1c(NC(=O)CSc2nnc(-c3ccncc3)n2CC2CCCO2)sc2c1CCCC2` (stereo not drawn), the Kinase result was “GSK3-β; also recorded: GSK3-α; also recorded: AURORA-A”. Turning to `COCCn1c(S)nnc1-c1cc2ccccc2cc1O` [3-(5-mercapto-4-(2-methoxyethyl)-4H-1,2,4-triazol-3-yl)naphthalen-2-ol], the Kinase result is “AURORA-A”.

In the case of `COc1ccc(-n2c(S)nnc2CNc2ccc(C)cc2)cc1` [5-((p-toluidino)methyl)-4-(4-methoxyphenyl)-4H-1,2,4-triazole-3-thiol], the Kinase result is “AURORA-A; also recorded: PDGFRR-α; also recorded: GSK3-β”.

The same experiment, now with this note: test compound 10 μM; active = activity greater than three-sigma from the mean of the predominately inactive population for that enzyme.
Consider `CCc1nnc(SCc2ccccc2)n1Cc1ccc(Cl)c(Cl)c1`, for which the “protein kinase against which the compound exhibits inhibitory activity (Table 3)” value is given as “GSK3-α; also recorded: GSK3-β; also recorded: AURORA-A”. Regarding `CCOc1ccc(Nc2nc(Cc3nnc(SCc4cccnc4)n3CC)cs2)cc1`, the “protein kinase against which the compound exhibits inhibitory activity (Table 3)” value is listed as “CHEK2; also recorded: AURORA-A”. On to `CCSc1nnc(-c2ccncc2)n1CCCOC` [4-(5-(ethylthio)-4-(3-methoxypropyl)-4H-1,2,4-triazol-3-yl)pyridine], for which the “protein kinase against which the compound exhibits inhibitory activity (Table 3)” value is given as “AURORA-A”. Still for that read-out and setting: as for `Cn1c(CNc2ccc(F)cc2)nnc1SCc1c(Cl)cccc1Cl`, the entry is “GSK3-β; also recorded: GSK3-α”; as for `Oc1ccc(-c2nnc(SCc3ccccc3)n2Cc2ccco2)cc1` [4-(5-(benzylthio)-4-(furan-2-ylmethyl)-4H-1,2,4-triazol-3-yl)phenol], “GSK3-β and GSK3-α and MSK2”; as for `Fc1ccc(CSc2nnc(-c3ccc(OC(F)(F)F)cc3)[nH]2)cc1` [3-(4-fluorobenzylthio)-5-(4-(trifluoromethoxy)phenyl)-4H-1,2,4-triazole], “FLT-3; also recorded: AURORA-A”. With `COc1ccc(N)cc1Cc1nnc(SCc2c(Cl)cccc2Cl)n1-c1ccccc1`, the “protein kinase against which the compound exhibits inhibitory activity (Table 3)” value is “PDGFRR-α and FLT-3 and FYN”. On the same count and under the same terms, as for `c1ccc(CCSc2nnc(-c3ccc(-c4ccccc4)cc3)[nH]2)cc1` [3-(biphenyl-4-yl)-5-(phenethylthio)-4H-1,2,4-triazole], the entry is “AURORA-A”.

As for `CCn1c(CNc2ccccc2Cl)nnc1SCC(=O)NNC(=O)c1ccc(OC)cc1`, the “protein kinase against which the compound exhibits inhibitory activity (Table 3)” value was “AURORA-A; also recorded: DYRK2”. Consider `CC1=CC(C)=NCN1SCc1nnc(SCc2ccc([N+](=O)[O-])cc2)n1Cc1ccco1`, for which the “protein kinase against which the compound exhibits inhibitory activity (Table 3)” value was “LYNA”. On the same count and under the same terms, as for `COc1ccccc1-n1c(SCC(O)c2ccccc2)nnc1-c1cccc(Cl)c1` (stereo not drawn), the entry is “ROCK2”. As for `CCOCCSc1nnc(-c2ccc(Cl)c(Cl)c2)[nH]1` [3-(3,4-dichlorophenyl)-5-(2-ethoxyethylthio)-4H-1,2,4-triazole], the “protein kinase against which the compound exhibits inhibitory activity (Table 3)” value is “AURORA-A; also recorded: GSK3-β; also recorded: GSK3-α”. As to `O=c1[nH]c(CSc2nnc(-c3ccccc3O)n2CCc2ccccc2)nc2ccccc12`, the “protein kinase against which the compound exhibits inhibitory activity (Table 3)” value is listed as “AKT1”. Consider `OCC(O)CSc1nnc(-c2cccc(Cl)c2)[nH]1` (stereo not drawn) [3-(5-(3-chlorophenyl)-4H-1,2,4-triazol-3-ylthio)propane-1,2-diol], for which the “protein kinase against which the compound exhibits inhibitory activity (Table 3)” value was “AURORA-A; also recorded: FLT-3; also recorded: CHEK2”. On the same count and under the same terms, for `c1csc(-c2nnc(SCCN3CCCC3)[nH]2)c1` [3-(2-(pyrrolidin-1-yl)ethylthio)-5-(thiophen-2-yl)-4H-1,2,4-triazole] the value was “GSK3-α; also recorded: GSK3-β; also recorded: DYRK2”.

Regarding `Cc1ccc(-n2c(SCC(=O)NNC(=O)c3ccccc3O)nnc2-c2ccccc2O)cc1`, the “protein kinase against which the compound exhibits inhibitory activity (Table 3)” value was “AURORA-A”.

On to `CSCCc1nnc(SCC(O)C(F)(F)F)[nH]1` (stereo not drawn), for which the “protein kinase against which the compound exhibits inhibitory activity (Table 3)” value is listed as “GSK3-α”. Still for that read-out and setting: as for `Cc1cccc(-c2nnc(SCCN3CCOCC3)[nH]2)c1` [4-(2-(5-m-tolyl-4H-1,2,4-triazol-3-ylthio)ethyl)morpholine], the entry is “AURORA-A; also recorded: GSK3-β; also recorded: GSK3-α”; as for `C=C(C)Cn1c(SCC(=O)NN)nnc1-c1ccc(Br)cc1`, “LCK”; as for `COc1ccc(C(=O)NNC(=O)CSc2nnc(C)n2CC2CCCO2)cc1` (stereo not drawn), “SYK”. Regarding `CC(C)Cc1nnc(SCc2ccccc2)n1Cc1ccc(Cl)c(Cl)c1` [3-(benzylthio)-4-(3,4-dichlorobenzyl)-5-isobutyl-4H-1,2,4-triazole], the “protein kinase against which the compound exhibits inhibitory activity (Table 3)” value is on record as “AURORA-A”. Still for that read-out and setting: as for `COc1ccccc1-n1c(SC2Cc3ccccc3C2=O)nnc1-c1cccc(Cl)c1` (stereo not drawn), the entry is “ROCK2”; as for `c1ccc2[nH]c(CSc3nnc(C4CCCC4)[nH]3)nc2c1` [2-((5-cyclopentyl-4H-1,2,4-triazol-3-ylthio)methyl)-1H-benzo[d]imidazole], “GSK3-α; also recorded: AURORA-A; also recorded: DYRK2”; as for `COc1ccc(NCc2nnc(SCc3ccc([N+](=O)[O-])cc3)n2C)cc1`, “FYN”. Still for that read-out and setting: for `Cc1ccc(NCc2nnc(SCc3nnc(-c4ccccc4)o3)n2Cc2ccco2)c(C)c1` the value was “AURORA-A”; for `O=C(O)CCSc1nnc(-c2ccc(O)cc2)n1Cc1ccccc1` [3-(4-benzyl-5-(4-hydroxyphenyl)-4H-1,2,4-triazol-3-ylthio)propanoic acid], “GSK3-β; also recorded: GSK3-α”; for `CCn1c(SCC(=O)NNC(=O)c2ccc(OC)cc2)nnc1-c1ccc(O)cc1`, “GSK3-a; also recorded: AURORA-A”.

The values above are taken from US20050288347A1, “Certain triazole-based compounds, compositions, and uses thereof” (priority 2004, published 2005).
